Reference: patent US20240181049A1, “HARNESSING THE POWER OF MICROBIOTA AND METABOLITES FOR THE TREATMENT OF CANCER” (UTI LIMITED PARTNERSHIP, priority 2019, published 2024)

Tests used:
T cells in the MLN = assay: Th1 activation in vivo after ovalbumin/CpG immunization; parameters: species or system GF mice; settings: 300 mg/kg/BW i.p.; vs vehicle
Method: FIG. 5A-5L: Inosine promotes Th1 activation and anti-tumor immunity. (a) Schematic overview of experimental setup to assess the effect of inosine on Th1 activation in vivo. (b, c) Representative dot plots and quantification (left and right panel respectively) of T-bet^+IFN-γ^+CD3ε^+ (b) CD8^+ or (c) CD4^+ T cells in the MLN. (d) Schematic overview of experimental setup to assess the effect of inosine on anti-tumor immunity. Upon palpable tumors, mice were treated with 100 μg anti-CTLA-4 i.p. (5 times every 72 hours) and in some groups 20 μg CpG i.p. (5 times every 72 hours). In addition, inosine (300 mg/KG/BW) or PBS was given daily orally (O), through gavage or systemically (S) through i.p. injection. (e) Tumor weight and quantification of IFN-γ^+ cells amongst (f) CD4^+ or (g) CD8^+ cells are shown. (h). Schematic overview to assess the requirement of A2AR signaling for inosine-induced anti-tumor immunity. […] (j) Tumor weight and quantification of IFN-γ^+ in (k) CD8^+ or (l) CD4^+ cells in the tumor are shown. […]
(§1) To evaluate the effect of inosine on Th1 activation, mice received 30 μg CpG, […] EndoFit Ovalbumin (both Invivogen) and 2 μg OVA323-339 (Sigma) i.p. and 24 hours later mice received 300 mg/kg/BW inosine or PBS as a control through i.p. injection. T cell differentiation was assessed 48 hours later. […]

[1] = tested on: naïve OVA323-339-specific OT-II CD4^+ T cells; assay: BMDC / naive OT-II CD4+ T cell co-culture, Th1 differentiation; format: cell-based, mice; settings: 2 mM inosine, 48 hours
Description: FIG. 4A-4K: Effect of inosine on T cell differentiation and dependency on classical dendritic cells of ICB therapy efficacy. (a) Scatter plot of untargeted metabolomics data in the serum of anti-CTLA-4 treated, tumor-bearing B.p. monocolonized compared to C.sp. monocolonized and germ-free (GF) mice. Grey circles or dotted grey circles depict inosine or inosine fragments/adducts, respectively. […] (c) Naïve CD4^+ T cells were co-cultured with bone marrow derived dendritic cells and IFN-γ. Quantification of T-bet^+CD3ε^+CD4^+ T cells 48 hours after co-culture in the presence or absence of inosine, A2A receptor inhibitor (ZM241385), cell permeable cAMP (db-cAMP) and protein kinase A inhibitor (RP-8-CPT-CAMPS). (d) Same as (c) without IFN-γ. (e) Representative plot and quantification (left and right panel) of phospho-CREB (Ser133) levels in naïve CD4^+ T cells cultured with anti-CD3/anti-CD28 coated beads for 1 hour in the presence or absence of inosine. (f) Schematic overview of experimental setup to deplete classical dendritic cells during MC38 tumor challenge and anti-CTLA-4 treatment. Intratumoral (g) frequency of CD8^+ T cells (h) IFN-γ^+CD8^+ T cells. (i and j) same as (g and h), but CD4^+ T cells and (k) tumor weight at […]. Data are mean±SEM and pooled from two individual experiments (a-b) n=5-8 samples/group (c-e) 10-15 biological replicates/group (f-k) 10 mice/group. *, P<0.05; **, P<0.01; ***, P<0.001; ****, P<0.0001
Bone marrow derived dendritic cells (BMDCs) were generated from flushed bone marrow cells, maintained in RPMI-1640 (Sigma) supplemented with 10% FBS, 50 μm 2-Mercaptoethanol (Sigma) 100 units/ml penicillin, 100 μg/ml streptomycin sulfate and 20 ng/ml rm GM-CSF (R&D). Medium was exchanged after 48 hours and 72 hours. 5 days after culture, a magnetic cell sorting step was performed to enrich for CD11c^+ cells (Miltenyi Biotec). CD11c^+ cells were seeded in 96 flat bottom wells and pulsed with 20 ng/ml OVA323-339 and 100 ng/ml LPS (both Sigma) for 18 hours. In some conditions BMDCs were also cultured with 10 ng/ml rmIFN-γ (R&D).
Negative selection magnetic cell sorting (Miltenyi Biotec) was used to enrich naïve OT-II CD4^+ T cells. Naïve OT-II CD4^+ T cells were then co-cultured with BMDCs at a ratio of 2:1 or stimulated with anti-CD3/anti-CD28 T cell activation beads (Thermofisher) at a ratio of 1:1 for 48 hours prior to restimulation with PMA/lonomycin in the presence of Brefeldin-A and analysis (see Single cell preparation and flow cytometry for details). In some conditions cells were additionally cultured with various combinations of 2 μg/ml anti-CTLA-4, 100 μM db-cAMP (Sigma), 5 μM ZM 241385 (Sigma), 300 μM Rp-8-CPT-CAMPS (Cayman Chemical) or 2 mM inosine (Sigma) as described previously (He et al., 2017; Yao et al., 2013).

MC38 tumor cells = assay: MC38 tumors in GF Rag1-deficient mice receiving WT or A2AR-deficient T cells, inosine + anti-CTLA-4 + CpG; format: in vivo; settings: WT vs A2AR-deficient T cells
Method: FIG. 5A-5L: Inosine promotes Th1 activation and anti-tumor immunity. (a) Schematic overview of experimental setup to assess the effect of inosine on Th1 activation in vivo. (b, c) Representative dot plots and quantification (left and right panel respectively) of T-bet^+IFN-γ^+CD3ε^+ (b) CD8^+ or (c) CD4^+ T cells in the MLN. (d) Schematic overview of experimental setup to assess the effect of inosine on anti-tumor immunity. Upon palpable tumors, mice were treated with 100 μg anti-CTLA-4 i.p. (5 times every 72 hours) and in some groups 20 μg CpG i.p. (5 times every 72 hours). In addition, inosine (300 mg/KG/BW) or PBS was given daily orally (O), through gavage or systemically (S) through i.p. injection. (e) Tumor weight and quantification of IFN-γ^+ cells amongst (f) CD4^+ or (g) CD8^+ cells are shown. (h). Schematic overview to assess the requirement of A2AR signaling for inosine-induced anti-tumor immunity. 1×10^6 MC38 cells (s.c.) and WT or A2AR-deficient 1×10^7 T cells (i.v. 6×10^6 CD4^+ and 4×10^6 CD8^+ cells) were injected. Upon palpable tumors, mice were treated with 100 μg anti-CTLA-4, 20 μg CpG (4 times every 72 hours, both i.p.) and inosine (daily, 300 mg/KG/BW, through gavage). (i) Pictures of tumors are shown at day 20. scale bars: 1 cm. (j) Tumor weight and quantification of IFN-γ^+ in (k) CD8^+ or (l) CD4^+ cells in the tumor are shown. Data are mean±SEM and pooled from two individual experiments (a-l) 10-11 mice/group. *, P<0.05; **, P<0.01; ***, P<0.001.
as §1, with “later. To assess the impact of inosine on tumor development during ICB therapy 1×10^6 cancer cells were injected subcutaneously (s.c.) in the flank of germ-free mice.” for “later.”

## OC[C@H]1O[C@@H](n2cnc3c(O)ncnc32)[C@H](O)[C@@H]1O [inosine]
T cells in the MLN
  proportions of T-bet+, IFN-γ+ CD8+ and CD4+ T cells in the MLN: increased
[1]; in the absence of IFN-γ
  Th1 induction: reduced Th1 induction
[1]; in the presence of exogenous IFN-γ
  Th1 differentiation of naïve T cells (T-bet+): strongly boosted Th1 differentiation of naïve T cells
MC38 tumor cells
  IFN-γ production within tumors: WT but not A2AR-deficient T cells displayed increased IFN-γ production within tumors
  tumor weights: only GF mice receiving WT T cells showed reduced tumor weights
MC38 tumor cells; inosine oral
  anti-CTLA-4/CpG-mediated anti-tumor immunity: enhanced anti-CTLA-4/CpG-mediated anti-tumor immunity in animals that received WT but not A2AR-deficient T cells
